In PMC11499995 (Communications Biology, 2024):

Biological target: T1, mNeonGreen (Branchiostoma lanceolatum, UniProt A0A1S4NYF2, C173I/S175A/W191I)
T1 sequence (A0A1S4NYF2 25-260 C173I/S175A/W191I): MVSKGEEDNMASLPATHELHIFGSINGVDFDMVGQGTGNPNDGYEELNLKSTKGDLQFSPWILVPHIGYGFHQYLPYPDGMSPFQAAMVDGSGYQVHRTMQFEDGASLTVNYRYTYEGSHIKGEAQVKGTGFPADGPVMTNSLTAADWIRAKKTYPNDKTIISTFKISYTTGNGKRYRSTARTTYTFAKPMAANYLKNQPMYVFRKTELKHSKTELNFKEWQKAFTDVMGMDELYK
Assay: fluorescence quenching titration, purified protein
Type: binding

O=S(=O)(O)O [sulfate]
Kd: 33 ± 3 mM
